In ChEMBL document CHEMBL4483862, “Open-source discovery of chemical leads for next-generation chemoprotective antimalarials” (2018):

Tested on: Plasmodium berghei
Assay: Luciferase/luciferin-expressing antifolate-resistant parasites were used to infect a culture of HepG2 cells that were pre-incubated with compounds. Infected hepatocytes emit light due to the luciferase reaction. Assay results are presented as the percent inhibition of light emission compared to control. […]
Format: functional
Conditions: sporozoite; for IC90: read-out: LUCIFERASE INFECTION ASSAY - IC90

Compound | IC90 [µM] | further results
Fc1ccc(N2CCN(c3nc(CN4CCOCC4)nc4scc(-c5ccccc5)c34)CC2)cc1 | > 10 | IC50 (HEPG2TOX_HILL_SLOPE 0.184, HEPG2TOX_R_SQUARED 0.0625, read-out: LUCIFERASE INFECTION ASSAY - IC50): > 10 µM
COc1cc(/C=N/Nc2c(Cl)c(Cl)nc(C(=O)O)c2Cl)cc(OC)c1OC | > 10 | IC50 (HEPG2TOX_HILL_SLOPE 0.214, HEPG2TOX_R_SQUARED 0.0951, read-out: LUCIFERASE INFECTION ASSAY - IC50): > 10 µM
CC1(C(=O)Nc2cnc3ccccc3c2)CCN1Cc1ccccc1Cl (centres undefined) | > 9.02 | IC50 (HEPG2TOX_HILL_SLOPE 0.189, HEPG2TOX_R_SQUARED 0.318, read-out: LUCIFERASE INFECTION ASSAY - IC50): > 9.02 µM
CC(=O)c1cccc(-c2cnc3cnc(-c4cccs4)cn23)c1 | 8.52 | IC50 (HEPG2TOX_HILL_SLOPE 0.197, HEPG2TOX_R_SQUARED 0.442, PBLUC_HILL_SLOPE 3.75, PBLUC_R_SQUARED 0.777, read-out: LUCIFERASE INFECTION ASSAY - IC50): 4.74 µM
CC(C)c1ccccc1NC(=O)Nc1nc(C(N)C2CCCCC2)cs1 (centres undefined) | 8 | IC50 (HEPG2TOX_HILL_SLOPE 0.21, HEPG2TOX_R_SQUARED 0.263, PBLUC_HILL_SLOPE 31.8, PBLUC_R_SQUARED 0.686, read-out: LUCIFERASE INFECTION ASSAY - IC50): 7.47 µM
CCOC(=O)c1c(S(=O)(=O)Nc2ccc([N+](=O)[O-])cc2)c(-c2ccccc2)n(-c2ccccc2)c1C | > 6.53 | IC50 (HEPG2TOX_HILL_SLOPE 0.2, HEPG2TOX_R_SQUARED 0.0818, PBLUC_HILL_SLOPE 2.97, PBLUC_R_SQUARED 0.542, read-out: LUCIFERASE INFECTION ASSAY - IC50): > 6.53 µM
COc1ccc2cc(CN(C)CC(=O)Nc3sccc3C(N)=O)ccc2c1 | 4.94 | IC50 (HEPG2TOX_HILL_SLOPE 0.237, HEPG2TOX_R_SQUARED 0.621, PBLUC_HILL_SLOPE 9.54, PBLUC_R_SQUARED 0.647, read-out: LUCIFERASE INFECTION ASSAY - IC50): 3.92 µM
CNc1nc2cnc(Nc3cccc(C(C)C)c3)cc2n1CCOC | > 10 | IC50 (HEPG2TOX_HILL_SLOPE 0.218, HEPG2TOX_R_SQUARED 0.135, read-out: LUCIFERASE INFECTION ASSAY - IC50): > 10 µM
CCOC(=O)c1c(C)[nH]c(C(=O)C(C)OC(=O)c2c3c(nc4ccccc24)/C(=C/c2ccc(F)cc2)CCC3)c1C (centres undefined) | > 10 | IC50 (HEPG2TOX_HILL_SLOPE 0.182, HEPG2TOX_R_SQUARED 0.103, read-out: LUCIFERASE INFECTION ASSAY - IC50): > 10 µM
c1ccc(-c2cc3c(NCCCN4CCN(c5ncccn5)CC4)ncnc3s2)cc1 | 4.71 | IC50 (HEPG2TOX_HILL_SLOPE 0.225, HEPG2TOX_R_SQUARED 0.56, PBLUC_HILL_SLOPE 1.89, PBLUC_R_SQUARED 0.636, read-out: LUCIFERASE INFECTION ASSAY - IC50): 1.47 µM
Cc1ccccc1-c1cn2c(-c3ccc4ncccc4c3)cnc2cn1 | 0.015 | IC50 (HEPG2TOX_HILL_SLOPE 0.237, HEPG2TOX_R_SQUARED 0.401, PBLUC_HILL_SLOPE 15.7, PBLUC_R_SQUARED 0.693, read-out: LUCIFERASE INFECTION ASSAY - IC50): 0.0131 µM
CC(NC(=O)CSc1nnc(-c2cccs2)[nH]1)c1ccc2c(c1)CCCC2 (centres undefined) | > 10 | IC50 (HEPG2TOX_HILL_SLOPE 0.208, HEPG2TOX_R_SQUARED 0.204, PBLUC_HILL_SLOPE 1.17, PBLUC_R_SQUARED 0.355, read-out: LUCIFERASE INFECTION ASSAY - IC50): 7.84 µM
COc1ccccc1-c1ccc2ncc(-c3cccc(C(C)=O)c3)n2n1 | 8.88 | IC50 (HEPG2TOX_HILL_SLOPE 0.183, HEPG2TOX_R_SQUARED 0.285, PBLUC_HILL_SLOPE 2.88, PBLUC_R_SQUARED 0.586, read-out: LUCIFERASE INFECTION ASSAY - IC50): 4.14 µM
Cc1cccc(OCCN(C)Cc2cc(=O)n3c([nH]c4ccccc43)c2C#N)c1 | 7.03 | IC50 (HEPG2TOX_HILL_SLOPE 0.204, HEPG2TOX_R_SQUARED 0.162, PBLUC_HILL_SLOPE 2.87, PBLUC_R_SQUARED 0.544, read-out: LUCIFERASE INFECTION ASSAY - IC50): 3.27 µM
Cc1ccc(-c2nnc(SCCOc3ccccc3C)nc2-c2ccc(C)cc2)cc1 | > 10 | IC50 (HEPG2TOX_HILL_SLOPE 0.184, HEPG2TOX_R_SQUARED 0.53, PBLUC_HILL_SLOPE 4.7, PBLUC_R_SQUARED 0.148, read-out: LUCIFERASE INFECTION ASSAY - IC50): 8.99 µM
CCCC(CNC(=O)COC(=O)c1ccc2[nH]c3c(c2c1)CCCC3)c1ccc(Cl)cc1Cl (centres undefined) | > 10 | IC50 (HEPG2TOX_HILL_SLOPE 0.187, HEPG2TOX_R_SQUARED 0.0336, read-out: LUCIFERASE INFECTION ASSAY - IC50): > 10 µM

Compound | IC90 [µM] | further results
O=C(Nc1ccc(Cl)c(S(=O)(=O)N2CCCC2)c1)c1[nH]nc2ccccc12 | > 10 | IC50 (HEPG2TOX_HILL_SLOPE 0.202, HEPG2TOX_R_SQUARED 0.183, PBLUC_HILL_SLOPE 12.1, PBLUC_R_SQUARED 0.78, read-out: LUCIFERASE INFECTION ASSAY - IC50): 9.03 µM
CC(C)C(C(=O)Nc1ccc(C#N)cc1)c1ccc(Cl)cc1 (centres undefined) | > 10 | IC50 (HEPG2TOX_HILL_SLOPE 0.183, HEPG2TOX_R_SQUARED 0.415, read-out: LUCIFERASE INFECTION ASSAY - IC50): > 10 µM
CN(Cc1cc(=O)n2c([nH]c3ccccc32)c1C#N)Cc1c(F)cccc1Cl | 6.11 | IC50 (HEPG2TOX_HILL_SLOPE 0.22, HEPG2TOX_R_SQUARED 0.757, PBLUC_HILL_SLOPE 1.9, PBLUC_R_SQUARED 0.518, read-out: LUCIFERASE INFECTION ASSAY - IC50): 1.92 µM
N#Cc1ccc(-c2cnc3cnc(-c4ccc(CNc5ccccc5)cc4)cn23)cc1 | 6.67 | IC50 (HEPG2TOX_HILL_SLOPE 0.183, HEPG2TOX_R_SQUARED 0.0935, PBLUC_HILL_SLOPE 1.81, PBLUC_R_SQUARED 0.744, read-out: LUCIFERASE INFECTION ASSAY - IC50): 1.98 µM
Cc1c(O)ccc2c(CNc3ccc(C(C)(C)C)cc3)cc(=O)oc12 | > 10 | IC50 (HEPG2TOX_HILL_SLOPE 0.191, HEPG2TOX_R_SQUARED 0.186, PBLUC_HILL_SLOPE 2.86, PBLUC_R_SQUARED 0.292, read-out: LUCIFERASE INFECTION ASSAY - IC50): 4.84 µM
CCCC/N=C1\SCC(c2c[nH]c3ccccc23)=NN1C | > 10 | IC50 (HEPG2TOX_HILL_SLOPE 0.211, HEPG2TOX_R_SQUARED 0.832, read-out: LUCIFERASE INFECTION ASSAY - IC50): > 10 µM
Cc1nc(CSc2nc3c(c(-c4ccccc4)c2C#N)C(=O)CC(C)(C)C3)cs1 | > 10 | IC50 (HEPG2TOX_HILL_SLOPE 0.218, HEPG2TOX_R_SQUARED 0.218, PBLUC_HILL_SLOPE 7.94, PBLUC_R_SQUARED 0.255, read-out: LUCIFERASE INFECTION ASSAY - IC50): 9.59 µM
Cc1nc(-c2ccc(CCNc3ncnc4sccc34)cc2)cs1 | > 10 | IC50 (HEPG2TOX_HILL_SLOPE 0.209, HEPG2TOX_R_SQUARED 0.388, PBLUC_HILL_SLOPE 0.293, PBLUC_R_SQUARED 0.513, read-out: LUCIFERASE INFECTION ASSAY - IC50): 0.0119 µM
CCN(c1ccccc1)S(=O)(=O)c1ccc(Sc2ccc(C)cc2C)nc1 | > 10 | IC50 (HEPG2TOX_HILL_SLOPE 0.198, HEPG2TOX_R_SQUARED 0.716, PBLUC_HILL_SLOPE 11.9, PBLUC_R_SQUARED 0.0318, read-out: LUCIFERASE INFECTION ASSAY - IC50): 9.38 µM
Cc1cc(/C=C(\C#N)c2nnc(N3CCOCC3)n2-c2ccccc2)c(C)n1-c1cccc(C(F)(F)F)c1 | > 10 | IC50 (HEPG2TOX_HILL_SLOPE 0.204, HEPG2TOX_R_SQUARED 0.0193, PBLUC_HILL_SLOPE 1.7, PBLUC_R_SQUARED 0.432, read-out: LUCIFERASE INFECTION ASSAY - IC50): > 10 µM
CC(C)(C)c1ccc(-c2cnc3cnc(-c4ccncc4)cn23)cc1 | 4.79 | IC50 (HEPG2TOX_HILL_SLOPE 0.197, HEPG2TOX_R_SQUARED 0.782, PBLUC_HILL_SLOPE 7.81, PBLUC_R_SQUARED 0.726, read-out: LUCIFERASE INFECTION ASSAY - IC50): 3.62 µM
CCC(C)c1ccc(NC(=O)/C(C#N)=C/c2cc3c(cc2[N+](=O)[O-])OCO3)cc1 (centres undefined) | > 10 | IC50 (HEPG2TOX_HILL_SLOPE 0.229, HEPG2TOX_R_SQUARED 0.341, PBLUC_HILL_SLOPE 0.634, PBLUC_R_SQUARED 0.752, read-out: LUCIFERASE INFECTION ASSAY - IC50): 2.46 µM
O=C(Nc1nc(-c2ccc[nH]2)cs1)c1cccc(Br)c1 | > 10 | IC50 (HEPG2TOX_HILL_SLOPE 0.199, HEPG2TOX_R_SQUARED 0.479, read-out: LUCIFERASE INFECTION ASSAY - IC50): > 10 µM
COc1ccc(CN2C(=O)N(CC(C)C)C3(CCN(Cc4ccc5c(c4)CCO5)CC3)C2=O)cc1 | > 6.91 | IC50 (HEPG2TOX_HILL_SLOPE 0.211, HEPG2TOX_R_SQUARED 0.0109, PBLUC_HILL_SLOPE 2.27, PBLUC_R_SQUARED 0.453, read-out: LUCIFERASE INFECTION ASSAY - IC50): 3.57 µM
Cc1c(S(=O)(=O)c2ccc(Cl)cc2)csc1NC(=O)Nc1cc(C2CC2)n[nH]1 | > 7.55 | IC50 (HEPG2TOX_HILL_SLOPE 0.224, HEPG2TOX_R_SQUARED 0.199, PBLUC_HILL_SLOPE 2.99, PBLUC_R_SQUARED 0.447, read-out: LUCIFERASE INFECTION ASSAY - IC50): 4.79 µM
O=C(NC1CC1)c1ccc(-c2cnc3cnc(/C=C/c4ccccc4)cn23)cc1 | > 8.67 | IC50 (HEPG2TOX_HILL_SLOPE 0.214, HEPG2TOX_R_SQUARED 0.714, PBLUC_HILL_SLOPE 0.95, PBLUC_R_SQUARED 0.815, read-out: LUCIFERASE INFECTION ASSAY - IC50): 1.05 µM
